pEC50: −log10 of the molar value. Read-outs that look alike come from different tables or passages of the source. Starred links: 1 amine or outer side, 2 acyl side, 3 side chain; linkers in the order of their positions; H or OH if unused. Non-standard residues stand in square brackets, D forms with d. Residues, ends and D or L forms follow the SMILES beside them. Groups on a side chain read outwards from the residue. *: point of attachment. C20 diacid = O=C(O)CCCCCCCCCCCCCCCCCCC(=O)*; γGlu = O=C(O)[C@H](CCC(=O)[*:2])N[*:1]; NMeI = CC[C@H](C)[C@H](NC)C(=O)O; AEEA = NCCOCCOCC(=O)O; Aib = CC(C)(N)C(=O)O A value given as a limit tells only on which side of the number the result lay.

For one data set, the target named is T1, hCRHR1 (Homo sapiens, UniProt P34998).
T1 sequence (P34998 24-415): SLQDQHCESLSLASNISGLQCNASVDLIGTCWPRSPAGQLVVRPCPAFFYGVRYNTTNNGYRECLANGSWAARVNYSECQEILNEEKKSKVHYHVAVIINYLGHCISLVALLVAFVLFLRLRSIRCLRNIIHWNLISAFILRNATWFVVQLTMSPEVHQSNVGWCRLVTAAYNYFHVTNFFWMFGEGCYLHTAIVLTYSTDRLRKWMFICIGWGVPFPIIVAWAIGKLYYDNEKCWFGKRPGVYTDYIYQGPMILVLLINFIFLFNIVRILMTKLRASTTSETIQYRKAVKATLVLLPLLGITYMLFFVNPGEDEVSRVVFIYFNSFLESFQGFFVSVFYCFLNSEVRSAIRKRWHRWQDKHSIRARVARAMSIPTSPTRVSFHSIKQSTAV
Description: HTRF cAMP assay, determination of hCRHR1 potency (peptide libraries 5 conc., purified peptides 11 conc.). Format: cell-based. Particulars: for pEC50: purified peptides, CHO-K1 cells stably expressing hCRHR1, cAMP HTRF, read-out: hCRHR1 EC50. The method in brief:
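Cellular cAMP was read by time-resolved FRET between d2-labelled cAMP and cryptate anti-cAMP antibody. The cells were freshly thawed suspension CHO-K1 cells stably expressing human CRHR1.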

Another data set addresses T2, hCRHR2 (Homo sapiens, UniProt Q13324).
T2 sequence (Q13324 1-411): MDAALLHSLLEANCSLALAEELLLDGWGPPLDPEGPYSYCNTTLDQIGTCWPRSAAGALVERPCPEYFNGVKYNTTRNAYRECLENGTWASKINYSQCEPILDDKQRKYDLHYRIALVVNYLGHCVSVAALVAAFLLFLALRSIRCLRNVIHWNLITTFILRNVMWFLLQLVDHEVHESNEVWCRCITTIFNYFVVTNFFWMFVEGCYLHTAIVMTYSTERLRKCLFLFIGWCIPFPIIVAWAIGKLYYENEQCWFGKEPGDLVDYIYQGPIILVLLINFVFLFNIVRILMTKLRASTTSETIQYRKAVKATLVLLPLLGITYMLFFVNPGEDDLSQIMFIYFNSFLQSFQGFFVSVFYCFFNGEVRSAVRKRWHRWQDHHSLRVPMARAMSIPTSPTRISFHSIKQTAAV
Description: HTRF cAMP assay, determination of hCRHR2 potency (peptide libraries 5 conc., purified peptides 11 conc.). It is filed as cell-based. The conditions noted are these: for Selectivity ratio (hCRHR1/ hCRHR2): hCRHR1-EC50/hCRHR2-EC50; for pEC50: purified peptides, CHO-K1 cells stably expressing hCRHR2, cAMP HTRF, read-out: hCRHR2 EC50. The method in brief:
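Read-out was HTRF competitive cAMP detection (d2-labelled cAMP, cryptate-labelled antibody) in suspended, freshly thawed CHO-K1 cells stably carrying human CRHR2.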
(In general: TR-FRET usually uses a lanthanide donor and a delayed reading to cut background.)

The nature of data set [1]: Thioflavin T fibril formation assay of purified peptides. It is filed as physicochemical. The arrangement: key: Amyloid fibril formation detected by an increase in ThT fluorescence was denoted with "Yes"; samples without increasing ThT fluorescence hence not forming amyloid fibrils were denoted "No". The conditions noted are these: for Fibrillation (pH 7.5): pH 7.5, ThT assay. The method in brief:
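Fibril formation read as rising ThT emission at 480 nm (450 nm excitation), 4 µM ThT, over 96 h at 40°C with alternating 5-min rest and 700 rpm shaking cycles, in triplicate. Samples were 200 µM compound in 50 mM phosphate at various pH values, or co-formulated at 200 µM in semaglutide product at pH 7.4.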

A further data set in a line: PK in rats. Format: in vivo. The arrangement: T½ / MRT: unit not given here. Particulars: for half-life: read-out: T½ (converted). The method in brief:
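Lean male Sprague Dawley rats (n = 3 per group) got a two-peptide combination at 50 nmol/kg IV and SC. Plasma was sampled from 0.17 to 96 h post dose and analysed by LC-MSMS. PK parameters came from non-compartmental analysis.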

The mark [2] stands for this setting: male, Sprague Dawley (RJHan:SD), in vivo, iv, Rat, 50 nmol/kg i.v.
Setting [3] is: male, Sprague Dawley (RJHan:SD), in vivo, sc, Rat, 50 nmol/kg s.c.

One may read the pEC50 as the negative decadic logarithm of the EC50, by convention in mol/L. What is called EC50 is the concentration needed to bring the measured effect to its halfway point. In general, clearance refers to a measure of how efficiently the substance is removed, as volume per time. The Cmax is the peak of the concentration-time curve. As a reminder, the Tmax is the time from dosing to the highest level. One may read the bioavailability as dose-corrected exposure relative to a reference, in per cent. For the molecule `CC[C@H](C)[C@H](NC)C(=O)N[C@H](C(=O)N[C@@H](CC(C)C)C(=O)N[C@@H](CO)C(=O)N[C@@H](CC(C)C)C(=O)N[C@@H](CC(=O)O)C(=O)N[C@H](C(=O)N1CCC[C@H]1C(=O)N[C@H](C(=O)NCC(=O)N[C@@H](CC(C)C)C(=O)N[C@@H](CC(C)C)C(=O)N[C@@H](CCC(N)=O)C(=O)N[C@H](C(=O)N[C@@H](CC(C)C)C(=O)N[C@@H](CC(C)C)C(=O)N[C@@H](CCC(=O)O)C(=O)N[C@@H](CCC(N)=O)C(=O)N[C@@H](C)C(=O)N[C@@H](CCCNC(=N)N)C(=O)N[C@@H](C)C(=O)N[C@@H](CCCNC(=N)N)C(=O)N[C@@H](C)C(=O)N[C@@H](C)C(=O)N[C@@H](CCCNC(=N)N)C(=O)N[C@@H](CCC(=O)O)C(=O)N[C@@H](CCC(N)=O)C(=O)N[C@@H](C)C(=O)N[C@@H](CCCCNC(=O)COCCOCCNC(=O)COCCOCCNC(=O)CC[C@H](NC(=O)CC[C@H](NC(=O)CCCCCCCCCCCCCCCCCCC(=O)O)C(=O)O)C(=O)O)C(=O)N[C@H](C(=O)N[C@@H](CC(N)=O)C(=O)NC(C)(C)C(=O)N[C@@H](CCC(=O)O)C(=O)N[C@H](C(=O)N[C@@H](CC(C)C)C(=O)N[C@@H](C)C(=O)N[C@@H](CCC(=O)O)C(=O)N[C@H](C(N)=O)C(C)C)[C@@H](C)CC)[C@@H](C)O)[C@@H](C)CC)[C@@H](C)CC)C(C)C)C(C)C` [SEQ ID NO: 16] (H-[NMeI]VLSLDVPIGLLQILLEQARARAAREQAK([AEEA-AEEA-γGlu-γGlu-C20 diacid])TN[Aib]EILAEV-NH2), the “Solubility pH 6.5 (mg/ml)” value (pH 6.5) stood at 20.6 mg/ml. Further, the “Solubility pH 7.0 (mg/mL)” value (pH 7) is on record as 19.8 mg/mL. Under “pH 7.5”, the “Solubility pH 7.5 (mg/mL)” value amounted to 17.9 mg/mL; the “Solubility pH 7.5 + phenol (mg/mL)” value is 18.0 mg/mL; the “Solubility pH 7.5, target conc. =10 mg/mL (measured mg/mL)” value came out at 10 mg/mL. Besides, the pEC50 on hCRHR1 was less than 5.30. The EC50 at hCRHR1 (stable cell system, Table 10, read-out: Stable EC50 (nM) hCRHR 1) is greater than 5000 nM. Moreover, on hCRHR2, the “Selectivity ratio (hCRHR1/ hCRHR2)” value is greater than 1852 and the pEC50 is 8.57. The “Amyloid fibril formation + semaglutide (Ozempic®), pH 7.4” value in data set [1] (200 µM compound dissolved in semaglutide drug product, pH 7.4, listed as None = drug product alone) is on record as “No”. In addition, in data set [1] (200 µM in 50 mM phosphate buffer, pH 7.0), the “Amyloid fibril formation pH 7.0” value is “No”. In addition, the “Amyloid fibril formation pH 7.5” value in data set [1] (200 µM in 50 mM phosphate buffer, pH 7.5) is “No”. Also, the “Amyloid fibril formation pH 8.0” value in data set [1] (200 µM in 50 mM phosphate buffer, pH 8.0) is reported as “No”. Also, in data set [1], the “Fibrillation (pH 7.5)” value is “No”. In the data set “PK in rats” (Rat), the MRT is 9.4 and the T½ is 7.8. Also, in “PK in rats” (setting [2]), the clearance was 0.117 mL/min/kg and the half-life was 7.8 h. In the data set “PK in rats” (setting [3]), the Cmax amounted to 87 nM, the Tmax is 24 h and the half-life was 9.8 h. In “PK in rats” (male, Sprague Dawley, rat, in vivo, sc), the bioavailability came out at 31%.
Regarding `CC[C@H](C)[C@H](N)C(=O)N[C@H](C(=O)N[C@@H](CC(C)C)C(=O)N[C@@H](CO)C(=O)N[C@@H](CC(C)C)C(=O)N[C@@H](CC(=O)O)C(=O)N[C@H](C(=O)N1CCC[C@H]1C(=O)N[C@H](C(=O)NCC(=O)N[C@@H](CC(C)C)C(=O)N[C@@H](CC(C)C)C(=O)N[C@@H](CCC(N)=O)C(=O)N[C@H](C(=O)N[C@@H](CC(C)C)C(=O)N[C@@H](CC(C)C)C(=O)N[C@@H](CCC(=O)O)C(=O)N[C@@H](CCC(N)=O)C(=O)N[C@@H](C)C(=O)N[C@@H](CCCNC(=N)N)C(=O)N[C@@H](C)C(=O)N[C@@H](CCCNC(=N)N)C(=O)N[C@@H](C)C(=O)N[C@@H](C)C(=O)N[C@@H](CCCNC(=N)N)C(=O)N[C@@H](CCC(=O)O)C(=O)N[C@@H](CCC(N)=O)C(=O)N[C@@H](C)C(=O)N[C@@H](CCCCNC(=O)COCCOCCNC(=O)COCCOCCNC(=O)CC[C@H](NC(=O)CC[C@H](NC(=O)CCCCCCCCCCCCCCCCCCC(=O)O)C(=O)O)C(=O)O)C(=O)N[C@@H](CCC(=O)O)C(=O)N[C@@H](CC(N)=O)C(=O)N[C@@H](C)C(=O)N[C@@H](CCC(=O)O)C(=O)N[C@H](C(=O)N[C@@H](CC(C)C)C(=O)N[C@@H](C)C(=O)N[C@@H](CCC(=O)O)C(=O)N[C@H](C(N)=O)C(C)C)[C@@H](C)CC)[C@@H](C)CC)[C@@H](C)CC)C(C)C)C(C)C` [SEQ ID NO: 17] (H-IVLSLDVPIGLLQILLEQARARAAREQAK([AEEA-AEEA-γGlu-γGlu-C20 diacid])ENAEILAEV-NH2), the “Solubility pH 7.5, target conc. =10 mg/mL (measured mg/mL)” value (pH 7.5) turned out to be 9.2 mg/mL. For the same molecule, on hCRHR1, the pEC50 was less than 5.30. In addition, at hCRHR2, the “Selectivity ratio (hCRHR1/ hCRHR2)” value is reported as greater than 2381 and the pEC50 was 8.68. The “Fibrillation (pH 7.5)” value in data set [1] is on record as “No”. For the same molecule, in the data set “PK in rats” (Rat), the MRT is on record as 7.6 and the T½ came out at 7.1.
As to `CC[C@H](C)[C@H](N)C(=O)N[C@H](C(=O)N[C@@H](CC(C)C)C(=O)N[C@@H](CO)C(=O)N[C@@H](CC(C)C)C(=O)N[C@@H](CC(=O)O)C(=O)N[C@H](C(=O)N1CCC[C@H]1C(=O)N[C@H](C(=O)NCC(=O)N[C@@H](CC(C)C)C(=O)N[C@@H](CC(C)C)C(=O)N[C@@H](CCC(N)=O)C(=O)N[C@H](C(=O)N[C@@H](CC(C)C)C(=O)N[C@@H](CC(C)C)C(=O)N[C@@H](CCC(=O)O)C(=O)N[C@@H](CCC(N)=O)C(=O)N[C@@H](C)C(=O)N[C@@H](CCCNC(=N)N)C(=O)N[C@@H](C)C(=O)N[C@@H](CCCNC(=N)N)C(=O)N[C@@H](C)C(=O)N[C@@H](C)C(=O)N[C@@H](CCCNC(=N)N)C(=O)N[C@@H](CCC(=O)O)C(=O)N[C@@H](CCC(N)=O)C(=O)N[C@@H](C)C(=O)N[C@H](C(=O)N[C@@H](CCCCNC(=O)COCCOCCNC(=O)COCCOCCNC(=O)CC[C@H](NC(=O)CC[C@H](NC(=O)CCCCCCCCCCCCCCCCCCC(=O)O)C(=O)O)C(=O)O)C(=O)N[C@@H](CC(N)=O)C(=O)N[C@@H](C)C(=O)N[C@@H](CCC(=O)O)C(=O)N[C@H](C(=O)N[C@@H](CC(C)C)C(=O)N[C@@H](C)C(=O)N[C@@H](CCC(=O)O)C(=O)N[C@H](C(N)=O)C(C)C)[C@@H](C)CC)[C@@H](C)O)[C@@H](C)CC)[C@@H](C)CC)C(C)C)C(C)C` [SEQ ID NO: 4] (H-IVLSLDVPIGLLQILLEQARARAAREQATK([AEEA-AEEA-γGlu-γGlu-C20 diacid])NAEILAEV-NH2), the “Solubility pH 7.5, target conc. =10 mg/mL (measured mg/mL)” value (pH 7.5) is recorded as 9.1 mg/mL. The pEC50 at hCRHR1 was less than 5.30. Further, at hCRHR2, the “Selectivity ratio (hCRHR1/ hCRHR2)” value was greater than 3846 and the pEC50 was 8.89. For the same molecule, in data set [1], the “Fibrillation (pH 7.5)” value is “No”. In addition, in “PK in rats” (Rat), the MRT is 6.4 and the T½ is 5.3.

The values above are taken from EP4810052A2, “HCRHR2 SELECTIVE POLYPEPTIDES” (Gubra A/S, priority 2023, dated 2026).
